Source: ChEMBL document CHEMBL3612027, “Substrate-guided optimization of the syringolins yields potent proteasome inhibitors with activity against leukemia cell lines” (Bioorg Med Chem, 2015)
pKi: −log10 of the molar value.

What follows are molecules tested against T1, Proteasome Macropain subunit MB1 (Homo sapiens) (UniProt P28074).
T1 sequence (whole entry): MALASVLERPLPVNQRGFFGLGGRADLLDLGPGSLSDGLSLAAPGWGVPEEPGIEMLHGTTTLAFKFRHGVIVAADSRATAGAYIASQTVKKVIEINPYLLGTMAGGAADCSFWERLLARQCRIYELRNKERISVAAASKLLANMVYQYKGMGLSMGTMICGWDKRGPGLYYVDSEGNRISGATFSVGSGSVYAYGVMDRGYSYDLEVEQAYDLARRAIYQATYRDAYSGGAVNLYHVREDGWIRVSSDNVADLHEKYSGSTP

Kin | SMILES
0.000486 s⁻¹ | COC(=O)[C@@H](NC(=O)N[C@H](C(=O)N[C@H]1CCCCNC(=O)/C=C/[C@H](Cc2cccc(F)c2)NC1=O)C(C)C)C(C)C
0.0005 s⁻¹ | COC(=O)[C@@H](NC(=O)N[C@H](C(=O)N[C@H]1CCCCNC(=O)/C=C/[C@H](Cc2cc(F)cc(F)c2)NC1=O)C(C)C)C(C)C

The molecules below were run against T2, Proteasome Macropain subunit MB1 (Homo sapiens, UniProt P28074) (assay: Inhibition of human 20S proteasome beta5 subunit using Suc-LLVY-AMC as substrate by fluorescence assay).
T2 sequence (P28074 whole entry): T1 sequence (whole entry)

SMILES | pKi
COC(=O)[C@@H](NC(=O)N[C@H](C(=O)N[C@H]1CCCCNC(=O)/C=C/[C@H](Cc2ccccc2Cl)NC1=O)C(C)C)C(C)C | 5.68
COC(=O)[C@@H](NC(=O)N[C@H](C(=O)N[C@H]1CCCCNC(=O)/C=C/[C@H](Cc2ccccc2)NC1=O)C(C)C)C(C)C | 6.13
COC(=O)[C@@H](NC(=O)N[C@H](C(=O)N[C@H]1CCCCNC(=O)/C=C/[C@H](Cc2cccc(C(F)(F)F)c2)NC1=O)C(C)C)C(C)C | 5.12
COC(=O)[C@@H](NC(=O)N[C@H](C(=O)N[C@H]1CCCCNC(=O)/C=C/[C@H](Cc2cccc(C)c2)NC1=O)C(C)C)C(C)C | 5.63
COC(=O)[C@@H](NC(=O)N[C@H](C(=O)N[C@H]1CCCCNC(=O)/C=C/[C@H](CC(C)C)NC1=O)C(C)C)C(C)C | 5.49
COC(=O)[C@@H](NC(=O)N[C@H](C(=O)N[C@H]1CCCCNC(=O)/C=C/[C@H](Cc2ccc(Cl)cc2)NC1=O)C(C)C)C(C)C | 5.91

The remaining molecules from weak to strong by pKi, led by results:

pKi | SMILES
5.94 | COC(=O)[C@@H](NC(=O)N[C@H](C(=O)N[C@H]1CCCCNC(=O)/C=C/[C@H](Cc2ccc(C)cc2)NC1=O)C(C)C)C(C)C
6.02 | COC(=O)[C@@H](NC(=O)N[C@H](C(=O)N[C@H]1CCCCNC(=O)/C=C/[C@H](Cc2cccc(Cl)c2)NC1=O)C(C)C)C(C)C
6.02 | COC(=O)[C@@H](NC(=O)N[C@H](C(=O)N[C@H]1CCCCNC(=O)/C=C/[C@H](Cc2cc(F)cc(F)c2)NC1=O)C(C)C)C(C)C
6.04 | COC(=O)[C@@H](NC(=O)N[C@H](C(=O)N[C@H]1CCCCNC(=O)/C=C/[C@H](Cc2ccccc2F)NC1=O)C(C)C)C(C)C
6.23 | COC(=O)[C@@H](NC(=O)N[C@H](C(=O)N[C@H]1CCCCNC(=O)/C=C/[C@H](Cc2cccc(F)c2)NC1=O)C(C)C)C(C)C
